Reference: US20070066636A1, “POLYMORPHS OF TARTRATE SALT OF 2-[2-(3-(R)-AMINO-PIPERIDIN-1-YL)-5-FLUORO-6-OXO-6H-PYRIMIDIN-1-YLMETHYL]-BENZONITRILE AND METHODS OF USE THEREFOR” (priority 2005, published 2007)
Structures can show the parent of a compound that is named as a salt. Values belong to the compound of their own block, whether it stands above or below them.

Tests used:
Type in all cases: physicochemical
[1] = Relative humidity (RH) stress of solids, XRPD; conditions: for XRPD Pattern after RH stress: ambient, 21 d
Procedure: Relative Humidity (RH) Stress: Open vials containing solid samples were placed inside chambers containing saturated salt solutions along with a small amount of the undissolved salt. The chambers were sealed and allowed to stand at ambient temperature for several weeks. Samples were analyzed by X-ray powder diffraction (XRPD) immediately after removing the sample from the RH chamber. The RH values for these salt solutions were obtained from an ASTM standard. See a) “Preparation and Use of Relative Humidity Chambers” SSCI Method MTD 032.01 Mar. 3, 2003; and b) “Standard Practice for Maintaining Constant Relative Humidity by Means of Aqueous Solutions” ASTM Standard E 104-02 (2002).

[2] = Moisture sorption/desorption analysis; conditions: for solid form of post moisture sorption/desorption sample by XRPD: after 5%-95%-5% RH cycle; for molecules of water present for every molecule of compound: at 95% RH, calculated from desorption weight change and molecular weight; for Weight Change: 25 C
Procedure: Moisture sorption/desorption data were collected on a VTI SGA-100 Vapor Sorption Analyzer. Sorption and desorption data were collected over a range of 5% to 95% relative humidity (RH) at 10% RH intervals under a nitrogen purge. Sodium chloride (NaCl) and polyvinylpyrrolidone (PVP) were used as the calibration standards. Equilibrium criteria used for analysis were less than 0.0100% weight change in 5 minutes, with a maximum equilibration time of 180 minutes if the weight criterion was not met. The plotted data that contain the percent weight change values at various RH intervals are relative to the initial weight of the sample. The plotted data have not been corrected for the initial moisture content. However, the weight gain data provided in the tables for the various relative humidity ranges are calculated using the sample weight at the beginning of the particular RH event as the initial weight. In particular, the equilibration event wt. % change from initial wt. to 5% RH was calculated as [(wt at 5% RH−initial wt.)/initial wt.]*100; and the sorption event wt. % change from 5% RH to 95% RH was calculated as [(wt. at 95% RH−wt at 5% RH)/wt at 5% RH]*100; and the desorption event wt. % change from 95% RH to 5% RH was calculated as [(wt. at 5% RH−wt at 95% RH)/wt at 95% RH]*100. This type of analysis permits direct comparison of the experimental weight changes to the theoretical values predicted for the inter-conversion of anhydrates to hydrated forms.

[3] = Slurry interconversion studies in methanol; conditions: room temperature; for XRPD Result after slurry: slurry time 5 days
Procedure: Slurry Experiments: Enough Compound I was added to a given solvent so that undissolved solids were present. The mixture was then agitated in a sealed vial at ambient temperature using either an orbital shaker or a rotating wheel. After several days the solids were isolated by vacuum filtration and allowed to dry at ambient temperature in the fume hood with the cap for the sample vial loosened.
In order to determine the relative stability of the polymorphs Compound I form A was slurried in separate experiments with roughly equal amounts of forms B, C and E in methanol at room temperature. After 12 days the solids were isolated and form A was recovered as the exclusive solid phase (Table 6). In addition to these experiments, slurries of forms B, C and D in the absence of other solid phases provided form A when slurried for 5 days in methanol at room temperature. […] It should be noted that the hydration states of these solid phases may be different for the different forms, which precludes an analysis of the true thermodynamic stability ordering through slurry experiments.

[4] = Solubility estimates in different solvents; conditions: thermodynamic from solid, ambient temperature, visual estimate
Procedure: A weighed sample (typically about 20 mg) of Compound I form A was treated with aliquots of the test solvent at ambient temperature. The aliquot volumes were typically 250 μL. Periodically, the mixture was sonicated between additions to facilitate dissolution. Complete dissolution of the test material was determined by visual inspection. Solubilities were estimated from these experiments based on the total solvent used to provide complete dissolution. […] If dissolution occurred after the last aliquot was added then solubility is expressed as “greater than or equal to” (≧). The solubility values for Compound I (Table 4) have been rounded to the nearest whole number. The true equilibrium solubilities for the compound may be different than the values provided here because of the use of solvent aliquots that were too large or due to a slow rate of dissolution.

[5] = Thermal analysis (TGA/DSC), thermal stability
Procedure: Thermogravimetric analyses (TGA) were carried out on a TA Instruments 2950 thermogravimetric analyzer. The calibration standards were nickel and Alumel™. Samples were placed in an aluminum sample pan, inserted into the TG furnace, and accurately weighed. The samples were heated in a stream of nitrogen at a rate of 10° C./min. The temperature of the furnace was equilibrated at 25° C. prior to the analysis of the samples. The percent mass loss values provided in the tables are rounded to the nearest 0.1%.
Differential scanning calorimetry (DSC) analyses were carried out on a TA Instruments differential scanning calorimeter 2920. Accurately weighed samples were placed in either crimped pans, crimped pans with manual pinhole or uncrimped pans to allow for pressure release. Each sample was heated under nitrogen at a rate of 10° C./min to 350° C. Indium metal was used as the calibration standard. Temperatures are reported at the transition maxima and reported to one decimal place, and the integrated events are expressed in J/g and rounded to the nearest whole number.

[6] = desorption, 95% RH to about 5% RH, Tables 2A, 2B (relative to weight at start of the event)
[7] = equilibration, initial weight to about 5% RH, Tables 2A, 2B (relative to weight at start of the event)
[8] = sorption, 5% RH to about 95% RH, Tables 2A, 2B (relative to weight at start of the event)
[9] = after desorption at about 5% RH, Tables 2C-2F (values fit change relative to initial weight)
[10] = after equilibration at about 5% RH, Tables 2C-2F (values fit change relative to initial weight)
[11] = after sorption at about 95% RH, Tables 2C-2F (values fit change relative to initial weight)

XRPD Pattern after RH stress ([1]; 58% RH stress): Form A | XRPD Pattern after RH stress ([1]; 75% RH stress): Form A | XRPD Pattern after RH stress ([1]; 84% RH stress): Form A | hydrate type from moisture sorption/desorption analysis [2]: variable hydrate | solid form of post moisture sorption/desorption sample by XRPD [2]: form A | molecules of water present for every molecule of compound [2]: approximately 1 | Weight Change [2, 6]: −3.77% | Weight Change [2, 7]: −1.44% | initial weight loss from ambient conditions to 5% RH ([2]; moisture sorption/desorption): approximately 1.4% | weight gain between 5% and 95% RH ([2]; moisture sorption/desorption): about 4.00% | Weight Change [2, 8]: 4.00% | relative stability of polymorphs [3]: more stable than form B, C, D, or E | solubility ([4]; organic solvent or mixture, 1,4-dioxane): < 3000 µg/mL | solubility ([4]; organic solvent or mixture, acetone): < 4000 µg/mL | solubility ([4]; organic solvent or mixture, acetonitrile): < 3000 µg/mL | solubility ([4]; organic solvent or mixture, chloroform): < 4000 µg/mL | solubility ([4]; organic solvent or mixture, dichloromethane): < 3000 µg/mL | solubility ([4]; organic solvent or mixture, diisopropyl ether): < 3000 µg/mL | solubility ([4]; organic solvent or mixture, dimethylformamide): ≥ 81000 µg/mL | solubility ([4]; organic solvent or mixture, ethanol): < 3000 µg/mL | solubility ([4]; organic solvent or mixture, ethyl acetate): < 3000 µg/mL | solubility ([4]; organic solvent or mixture, hexafluoroisopropanol): ≥ 80000 µg/mL | solubility ([4]; organic solvent or mixture, hexanes): < 3000 µg/mL | solubility ([4]; organic solvent or mixture, isopropanol): < 3000 µg/mL | solubility ([4]; organic solvent or mixture, isopropyl acetate): < 3000 µg/mL | solubility ([4]; organic solvent or mixture, methanol): ≥ 16000 µg/mL | solubility ([4]; organic solvent or mixture, methyl ethyl ketone): < 3000 µg/mL | solubility ([4]; organic solvent or mixture, nitromethane): < 3000 µg/mL | solubility ([4]; organic solvent or mixture, tetrahydrofuran): < 3000 µg/mL | solubility ([4]; organic solvent or mixture, toluene): < 3000 µg/mL | solubility ([4]; organic solvent or mixture, trifluoroethanol): ≥ 81000 µg/mL | solubility ([4]; water): ≥ 41000 µg/mL | XRPD Pattern after heating ([5]; TGA to 150° C. & recovered): Form A | thermally stable up to ([5]; thermal analysis): about 200 °C
SMILES: N#Cc1ccccc1Cn1c(N2CCC[C@@H](N)C2)ncc(F)c1=O [Form A, tartrate salt of 2-[2-(3-(R)-amino-piperidin-1-yl)-5-fluoro-6-oxo-6H-pyrimidin-1-ylmethyl]-benzonitrile]
phase change upon RH stress ([1]; various RH conditions, room temperature, several weeks): none of these samples had undergone a phase change

solid form of post moisture sorption/desorption sample by XRPD [2]: form C | Weight Change [2, 6]: −6.30% | Weight Change [2, 7]: −0.50% | initial weight loss from ambient conditions to 5% RH ([2]; moisture sorption/desorption): approximately 0.5% | weight gain between 5% and 95% RH ([2]; moisture sorption/desorption): 6.6% | Weight Change [2, 8]: 6.64% | XRPD Result after slurry [3]: Form A
SMILES: N#Cc1ccccc1Cn1c(N2CCC[C@@H](N)C2)ncc(F)c1=O [Form B, tartrate salt of 2-[2-(3-(R)-amino-piperidin-1-yl)-5-fluoro-6-oxo-6H-pyrimidin-1-ylmethyl]-benzonitrile]

solid form of post moisture sorption/desorption sample by XRPD [2]: form C | Weight Change [2, 9]: −0.899% | Weight Change [2, 10]: −0.873% | Weight Change [2, 11]: 4.744% | molecules of water present for every molecule of compound [2]: approximately 1.5 | initial weight loss from ambient conditions to 5% RH ([2]; moisture sorption/desorption): approximately 0.9% | weight gain between 5% and 95% RH ([2]; moisture sorption/desorption): 5.7% | XRPD Result after slurry [3]: Form A
SMILES: N#Cc1ccccc1Cn1c(N2CCC[C@@H](N)C2)ncc(F)c1=O [Form C, tartrate salt of 2-[2-(3-(R)-amino-piperidin-1-yl)-5-fluoro-6-oxo-6H-pyrimidin-1-ylmethyl]-benzonitrile]

XRPD Result after slurry [3]: Form A
SMILES: N#Cc1ccccc1Cn1c(N2CCC[C@@H](N)C2)ncc(F)c1=O [Form D, tartrate salt of 2-[2-(3-(R)-amino-piperidin-1-yl)-5-fluoro-6-oxo-6H-pyrimidin-1-ylmethyl]-benzonitrile]

solid form of post moisture sorption/desorption sample by XRPD [2]: form C | Weight Change [2, 9]: 0.098% | Weight Change [2, 10]: −0.352% | Weight Change [2, 11]: 8.801% | initial weight loss from ambient conditions to 5% RH ([2]; moisture sorption/desorption): approximately 0.4% | weight gain between 5% and 95% RH ([2]; moisture sorption/desorption): 9.2%
SMILES: N#Cc1ccccc1Cn1c(N2CCC[C@@H](N)C2)ncc(F)c1=O [Form E, tartrate salt of 2-[2-(3-(R)-amino-piperidin-1-yl)-5-fluoro-6-oxo-6H-pyrimidin-1-ylmethyl]-benzonitrile]

XRPD Pattern after RH stress ([1]; 6% RH stress): Amorphous | XRPD Pattern after RH stress ([1]; 33% RH stress): Amorphous | XRPD Pattern after RH stress ([1]; 58% RH stress): Amorphous | XRPD Pattern after RH stress ([1]; 75% RH stress): Form B | XRPD Pattern after RH stress ([1]; 84% RH stress): Pattern F | Weight Change [2, 9]: 0.868% | Weight Change [2, 10]: −0.054% | Weight Change [2, 11]: 13.393% | initial weight gain from ambient conditions to 5% RH ([2]; moisture sorption/desorption): approximately 0.2% | weight gain between 5% and 95% RH ([2]; moisture sorption/desorption): 5.8% | weight gain between 5% and 95% RH ([2]; moisture sorption/desorption, listed as freeze dried Compound I): ~13.5%
SMILES: N#Cc1ccccc1Cn1c(N2CCC[C@@H](N)C2)ncc(F)c1=O [amorphous Form 1, tartrate salt of 2-[2-(3-(R)-amino-piperidin-1-yl)-5-fluoro-6-oxo-6H-pyrimidin-1-ylmethyl]-benzonitrile]
solid form of post moisture sorption/desorption sample by XRPD [2]: tentatively identified as containing form A

Weight Change [2, 9]: 0.433% | Weight Change [2, 10]: 0.156% | Weight Change [2, 11]: 6.013%
SMILES: N#Cc1ccccc1Cn1c(N2CCC[C@@H](N)C2)ncc(F)c1=O [amorphous Form 2, tartrate salt of 2-[2-(3-(R)-amino-piperidin-1-yl)-5-fluoro-6-oxo-6H-pyrimidin-1-ylmethyl]-benzonitrile]
